The IC50 is the concentration that inhibits the measured activity by half.

One test addresses T1, human TYRO3 (455-end) (Homo sapiens, UniProt Q06418).
T1 construct: TYRO3 (455-end); purchased SignalChem, Canada
T1 sequence (Q06418 455-890 limits assumed): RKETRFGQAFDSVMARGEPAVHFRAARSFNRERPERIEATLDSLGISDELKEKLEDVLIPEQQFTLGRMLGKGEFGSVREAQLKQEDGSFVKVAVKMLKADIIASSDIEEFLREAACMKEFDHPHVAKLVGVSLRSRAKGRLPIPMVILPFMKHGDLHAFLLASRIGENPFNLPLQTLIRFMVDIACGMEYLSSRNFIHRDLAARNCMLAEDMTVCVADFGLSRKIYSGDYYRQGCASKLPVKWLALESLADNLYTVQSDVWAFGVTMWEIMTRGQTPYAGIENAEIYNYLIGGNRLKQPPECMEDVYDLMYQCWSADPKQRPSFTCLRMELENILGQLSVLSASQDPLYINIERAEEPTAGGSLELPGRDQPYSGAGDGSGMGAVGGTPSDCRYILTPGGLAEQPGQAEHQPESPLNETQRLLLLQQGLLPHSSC
Nature of the test: HTRF kinase activity biochemical assay, TYRO3. The settings on record: 10 μM ATP, 30 minutes pre-incubation; read-out: HTRF TYRO IC50. For orientation: TR-FRET usually uses a lanthanide donor and a delayed reading to cut background.

The target of the next test is T2, human MER (528-end) (Homo sapiens, UniProt Q12866).
T2 construct: human MER (528-end); purchased Camnabio, Japan
T2 sequence (Q12866 528-999 limits assumed): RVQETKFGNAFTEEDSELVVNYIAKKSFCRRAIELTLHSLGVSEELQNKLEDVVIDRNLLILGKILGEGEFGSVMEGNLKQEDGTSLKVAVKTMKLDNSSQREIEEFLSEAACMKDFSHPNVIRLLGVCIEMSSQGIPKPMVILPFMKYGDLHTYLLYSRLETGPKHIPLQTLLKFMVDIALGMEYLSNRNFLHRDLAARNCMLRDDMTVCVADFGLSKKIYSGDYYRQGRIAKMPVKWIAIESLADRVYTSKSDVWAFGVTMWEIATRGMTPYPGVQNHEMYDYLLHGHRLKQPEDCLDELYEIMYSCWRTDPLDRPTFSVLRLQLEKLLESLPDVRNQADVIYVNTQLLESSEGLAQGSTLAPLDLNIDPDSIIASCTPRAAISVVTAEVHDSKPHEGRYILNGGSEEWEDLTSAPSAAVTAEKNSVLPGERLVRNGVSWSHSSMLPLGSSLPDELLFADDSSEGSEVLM
Nature of the test: HTRF kinase activity biochemical assay, MER. The settings on record: 10 μM ATP, 30 minutes pre-incubation; read-out: HTRF MERTK IC50.

For another test, the target named is T3, human AXL (473-end) (Homo sapiens, UniProt P30530).
T3 construct: human AXL (473-end); purchased SignalChem, Canada
T3 sequence (P30530 473-894 limits assumed): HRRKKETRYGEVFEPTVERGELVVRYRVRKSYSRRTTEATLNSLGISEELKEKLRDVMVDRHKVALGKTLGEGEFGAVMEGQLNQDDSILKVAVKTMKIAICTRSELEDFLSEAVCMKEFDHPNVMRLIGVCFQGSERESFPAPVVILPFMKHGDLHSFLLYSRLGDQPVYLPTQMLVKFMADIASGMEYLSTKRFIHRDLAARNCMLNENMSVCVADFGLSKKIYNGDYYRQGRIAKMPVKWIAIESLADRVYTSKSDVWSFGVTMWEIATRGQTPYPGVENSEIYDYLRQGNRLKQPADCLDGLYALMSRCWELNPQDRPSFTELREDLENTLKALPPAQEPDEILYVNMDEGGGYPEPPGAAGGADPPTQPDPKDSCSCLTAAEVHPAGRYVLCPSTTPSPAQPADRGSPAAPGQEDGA
Nature of the test: HTRF kinase activity biochemical assay, AXL. The note with it: 10 μM ATP, 30 minutes pre-incubation.

`Nc1ncc(-c2ccc(F)nc2)cc1C(=O)N[C@H]1CCC[C@@H]1OCc1ccc(-c2ccc3c(c2)CCCC3N2CCN(CCO)CC2)cc1` (stereo partly drawn) [Example 106, 6-amino-6′-fluoro-N-{(1S,2S)-2-[(4-{5-[4-(2-hydroxyethyl)piperazin-1-yl]-5,6,7,8-tetrahydronaphthalen-2-yl}phenyl)methoxy]cyclopentyl}[3,3′-bipyridine]-5-carboxamide]: the IC50 at human TYRO3 (455-end) was 10 to 100 nM; on human MER (528-end) it was < 10 nM; against human AXL (473-end), < 10 nM.
On to `CN1CCN(C2CC(C)(C)c3cc(-c4ccc(CO[C@H]5CCC[C@@H]5NC(=O)c5cc(-c6ccn(C)c(=O)c6)cnc5N)cc4)ccc32)CC1` (stereo partly drawn) [Example 107, 6-amino-N-[(1S,2S)-2-({4-[3,3-dimethyl-1-(4-methylpiperazin-1-yl)-2,3-dihydro-1H-inden-5-yl]phenyl}methoxy)cyclopentyl]-1′-methyl-2′-oxo-1′,2′-dihydro[3,4′-bipyridine]-5-carboxamide], for which the concentration for half-maximal inhibition (IC50) at human TYRO3 (455-end) is 10 to 100 nM; on human MER (528-end), < 10 nM; at human AXL (473-end), < 10 nM.
For the compound `CN1CCN(C2CC(C)(C)c3cc(-c4ccc(CO[C@H]5CCC[C@@H]5NC(=O)c5cc(-c6cccnc6F)cnc5N)cc4)ccc32)CC1` (stereo partly drawn) [Example 108, 6-amino-N-[(1S,2S)-2-({4-[3,3-dimethyl-1-(4-methylpiperazin-1-yl)-2,3-dihydro-1H-inden-5-yl]phenyl}methoxy)cyclopentyl]-2′-fluoro[3,3′-bipyridine]-5-carboxamide], the IC50 was 10 to 100 nM at human TYRO3 (455-end), < 10 nM at human MER (528-end) and < 10 nM against human AXL (473-end).
Regarding `CN(C)C1c2ccc(-c3ccc(CO[C@H]4CCC[C@@H]4NC(=O)c4cc(-c5cnn(C)c5)cnc4N)cc3)cc2CC1(C)C` (stereo partly drawn) [Example 109, 2-amino-N-[(1S,2S)-2-({4-[1-(dimethylamino)-2,2-dimethyl-2,3-dihydro-1H-inden-5-yl]phenyl}methoxy)cyclopentyl]-5-(1-methyl-1H-pyrazol-4-yl)pyridine-3-carboxamide], the IC50 on human TYRO3 (455-end) was > 1000 nM; on human MER (528-end) it was 10 to 100 nM; against human AXL (473-end), < 10 nM.
Consider `Cc1cn(C2CCN(CCO)CC2)c2ncc(-c3ccc(CO[C@H]4CCC[C@@H]4NC(=O)c4cc(-c5cnn(C)c5)cnc4N)cc3)cc12` [Example 110, 2-amino-N-{(1S,2S)-2-[(4-{1-[1-(2-hydroxyethyl)piperidin-4-yl]-3-methyl-1H-pyrrolo[2,3-b]pyridin-5-yl}phenyl)methoxy]cyclopentyl}-5-(1-methyl-1H-pyrazol-4-yl)pyridine-3-carboxamide], for which the half-inhibitory concentration (IC50) is 100 to 1000 nM at human TYRO3 (455-end), < 10 nM on human MER (528-end) and < 10 nM on human AXL (473-end).
With `Cn1cc(-c2cnc(N)c(C(=O)N[C@H]3CCC[C@@H]3OCc3ccc(-c4ccc5c(cnn5C5CCN(CCO)CC5)c4)cc3)c2)cn1` [Example 111, 2-amino-N-{(1S,2S)-2-[(4-{1-[1-(2-hydroxyethyl)piperidin-4-yl]-1H-indazol-5-yl}phenyl)methoxy]cyclopentyl}-5-(1-methyl-1H-pyrazol-4-yl)pyridine-3-carboxamide], the 50% inhibitory concentration (IC50) at human TYRO3 (455-end) is > 1000 nM; at human MER (528-end), 10 to 100 nM; on human AXL (473-end) it was 100 to 1000 nM.
Take `Cn1cc(-c2cnc(N)c(C(=O)N[C@H]3CCC[C@@H]3OCc3ccc(-c4ccc5c(c4)CCCN5C4CCN(CCO)CC4)cc3)c2)cn1` [Example 112, 2-amino-N-{(1S,2S)-2-[(4-{1-[1-(2-hydroxyethyl)piperidin-4-yl]-1,2,3,4-tetrahydroquinolin-6-yl}phenyl)methoxy]cyclopentyl}-5-(1-methyl-1H-pyrazol-4-yl)pyridine-3-carboxamide]: the values for the concentration for half-maximal inhibition (IC50) on human TYRO3 (455-end), at human MER (528-end) and against human AXL (473-end) were 10 to 100 nM, < 10 nM and < 10 nM, respectively.
With `Cn1cc(-c2cnc(N)c(C(=O)N[C@H]3CCC[C@@H]3OCc3ccc(-c4ccc5c(n4)C(C)(C)CN5C4CCN(CCO)CC4)cc3)c2)cn1` [Example 113, 2-amino-N-{(1S,2S)-2-[(4-{1-[1-(2-hydroxyethyl)piperidin-4-yl]-3,3-dimethyl-2,3-dihydro-1H-pyrrolo[3,2-b]pyridin-5-yl}phenyl)methoxy]cyclopentyl}-5-(1-methyl-1H-pyrazol-4-yl)pyridine-3-carboxamide], the concentration for half-maximal inhibition (IC50) on human TYRO3 (455-end) was 100 to 1000 nM; at human MER (528-end) it was < 10 nM; on human AXL (473-end), 10 to 100 nM.
For `Cn1cc(-c2cnc(N)c(C(=O)N[C@H]3CCC[C@@H]3OCc3ccc(-c4ccc5c(c4)C(C)(C)CCN5C4CCN(CCO)CC4)cc3)c2)cn1` [Example 114, 2-amino-N-{(1S,2S)-2-[(4-{1-[1-(2-hydroxyethyl)piperidin-4-yl]-4,4-dimethyl-1,2,3,4-tetrahydroquinolin-6-yl}phenyl)methoxy]cyclopentyl}-5-(1-methyl-1H-pyrazol-4-yl)pyridine-3-carboxamide], in that order: 10 to 100 nM, < 10 nM and < 10 nM.
On to `CN1CCN([C@H]2CCc3cc(-c4ccc(CO[C@H]5CCC[C@@H]5NC(=O)c5cc(-c6ccn(C)c(=O)c6)cnc5N)cc4)ccc32)CC1` [Example 115, 6-amino-1′-methyl-N-[(1S,2S)-2-({4-[(1S)-1-(4-methylpiperazin-1-yl)-2,3-dihydro-1H-inden-5-yl]phenyl}methoxy)cyclopentyl]-2′-oxo-1′,2′-dihydro[3,4′-bipyridine]-5-carboxamide], for which the figures for the concentration for half-maximal inhibition (IC50) on human TYRO3 (455-end), on human MER (528-end) and against human AXL (473-end) were 100 to 1000 nM, < 10 nM and < 10 nM, respectively.
Consider `CN1CCN([C@H]2CCc3cc(-c4ccc(CO[C@H]5CCC[C@@H]5NC(=O)c5cc(-c6cccnc6F)cnc5N)cc4)ccc32)CC1` [Example 116, 6-amino-2′-fluoro-N-[(1S,2S)-2-({4-[(1S)-1-(4-methylpiperazin-1-yl)-2,3-dihydro-1H-inden-5-yl]phenyl}methoxy)cyclopentyl][3,3′-bipyridine]-5-carboxamide], for which the figures for the IC50 on human TYRO3 (455-end), at human MER (528-end) and at human AXL (473-end) were 100 to 1000 nM, < 10 nM and < 10 nM, respectively.
For `Nc1ncc(-c2ccc(F)nc2)cc1C(=O)N[C@H]1CCC[C@@H]1OCc1ccc(-c2ccc3c(c2)CC[C@H]3N2CCN3C[C@H](O)C[C@H]3C2)cc1` [Example 118, 6-amino-6′-fluoro-N-{(1S,2S)-2-[(4-{(1R)-1-[(7R,8aS)-7-hydroxyhexahydropyrrolo[1,2-a]pyrazin-2 (1H)-yl]-2,3-dihydro-1H-inden-5-yl}phenyl)methoxy]cyclopentyl}[3,3′-bipyridine]-5-carboxamide], the figures for the IC50 on human TYRO3 (455-end), at human MER (528-end) and against human AXL (473-end) were > 1000 nM, < 10 nM and 10 to 100 nM, respectively.
Take `CC1(C)CC(N2CCN(CCO)CC2)c2ccc(-c3ccc(CO[C@H]4CCC[C@@H]4NC(=O)c4cc(-c5cccnc5F)cnc4N)cc3)cc21` (stereo partly drawn) [Example 119, 6-amino-2′-fluoro-N-{(1S,2S)-2-[(4-{1-[4-(2-hydroxyethyl)piperazin-1-yl]-3,3-dimethyl-2,3-dihydro-1H-inden-5-yl}phenyl)methoxy]cyclopentyl}[3,3′-bipyridine]-5-carboxamide]: the 50% inhibitory concentration (IC50) at human TYRO3 (455-end) is 10 to 100 nM; on human MER (528-end), < 10 nM; at human AXL (473-end), < 10 nM.
As to `Cn1cc(-c2cnc(N)c(C(=O)N[C@H]3CCC[C@@H]3OCc3ccc(-c4ccc5c(c4)OCCC5N4CCN(CCO)CC4)cc3)c2)cn1` (stereo partly drawn) [Example 121, 2-amino-N-{(1S,2S)-2-[(4-{4-[4-(2-hydroxyethyl)piperazin-1-yl]-3,4-dihydro-2H-1-benzopyran-7-yl}phenyl)methoxy]cyclopentyl}-5-(1-methyl-1H-pyrazol-4-yl)pyridine-3-carboxamide], the results for the IC50 at human TYRO3 (455-end), on human MER (528-end) and on human AXL (473-end) were 10 to 100 nM, < 10 nM and < 10 nM, respectively.

The record behind these values is patent US20260146035A1, “FUSED BICYCLIC COMPOUNDS AND THEIR USE AS MER AND AXL INHIBITORS” (DONG-A ST CO., LTD., priority 2022, published 2026).
